What was measured:
[1] = target: eIF4E (Mus musculus, UniProt P63073); experiment: Binding affinity of cap analogs to eIF4E by fluorescence titration; conditions: equilibrium association constant; for Cap analog/eIF4E affinity (KAS): 20 °C, pH 7.2, ionic strength 150 mM
Description: Fluorescence titration measurements were carried out on an LS-50B or LS-55 spectrofluorometer (Perkin Elmer Co.) at 20.0±0.2° C. in 50 mM HEPES/KOH (pH 7.2), 0.5 mM EDTA, and 1 mM DTT, with ionic strength adjusted to 150 mM by addition of KCl. Various cap analogue solutions, of increasing concentration, were added in 1 μl aliquots to 1.4 ml of 0.1 or 0.2 μM protein solutions. Fluorescence intensities were measured with excitation at 280 nm or 295 nm with 2.2 nm bandwidth, and detection at 337 nm with 4 nm bandwidth and a 290-nm cut-off filter. The data were corrected for sample dilution and inner filter effects. Equilibrium association constants (Kas) were determined by fitting the theoretical dependence of fluorescence intensity on cap analog concentration to the experimental data, as otherwise described in A. Niedźwiecka et al., “Biophysical studies of eIF4E cap-binding protein: recognition of mRNA 5′ cap structure and synthetic fragments of eIF4G and 4E-BP1 proteins,” J. Mol. Biol., vol. 312, pp. 615-635 (2002). The concentration of protein was allowed to be a free parameter in the equilibrium equation, to determine the amount of “active” protein. The final Kas was calculated as a weighted average of three to ten independent titrations, with the weights taken as the reciprocals of the squares of the numerical standard deviations. Numerical nonlinear least-square regression analysis was performed using ORGIN 6.0 (Microcal Software Inc., USA).
The binding affinities of eukaryotic eIF4E for various cap analogs were determined by fluorescence quenching. This biophysical test allows one to predict the potential efficacy of cap analogs in translation. Those having higher affinities for eIF4E than the unmodified cap analog (m^7GpppG) are expected to be better recognized by the translational machinery, leading to higher translational efficiencies. They also are expected to compete more effectively with unmodified mRNA when free cap dinucleotides are used to inhibit translation. See generally E. Grudzien-Nogalska et al., “Synthesis of anti-reverse cap analogs (ARCAs) and their applications in mRNA translation and stability,” Methods Enzymol., vol. 431, pp. 203-227 (2007).

[2] = target: T1, Human DcpS (Homo sapiens, UniProt Q96C86); experiment: Assay of susceptibility to DcpS (RP HPLC); format: biochemical
T1 construct: made in house; host or cells: Escherichia coli
T1 sequence (Q96C86 1-337): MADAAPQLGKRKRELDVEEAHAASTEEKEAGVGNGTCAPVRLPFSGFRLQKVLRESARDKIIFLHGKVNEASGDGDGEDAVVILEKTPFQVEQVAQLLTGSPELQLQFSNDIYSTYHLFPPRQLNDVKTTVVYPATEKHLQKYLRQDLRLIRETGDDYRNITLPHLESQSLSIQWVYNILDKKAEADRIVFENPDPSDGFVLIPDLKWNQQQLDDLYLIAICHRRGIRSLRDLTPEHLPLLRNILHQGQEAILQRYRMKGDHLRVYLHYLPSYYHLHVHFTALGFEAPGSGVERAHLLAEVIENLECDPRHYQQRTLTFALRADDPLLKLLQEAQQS
Description: Human DcpS was expressed in Escherichia coli as described in L. Cohen et al., “Nematode m^7GpppG and m3^2,2,7GpppG decapping: activities in Ascaris embryos and characterization of C. elegans scavenger DcpS,” RNA, vol. 10, pp. 1609-1624 (2004). A 15 μM solution of the protein in 20 mM Tris buffer, pH 7.5, containing 50 mM KCl, 0.2 mM EDTA, 1 mM DTT, 0.5 mM PMSF, and 20% glycerol was stored at −80° C. until used. Enzymatic reactions were carried out at 30° C. in 500 μl of 50 mM Tris-HCl, pH 7.9, containing 20 mM MgCl2 and 60 mM (NH4)2SO4. A 40 μM solution of the selected cap analog was treated with 5.0 μl of DcpS for 120 min. At times of 10, 30, 60, and 120 min, a 100-μl sample was collected from the reaction mixture and deactivated by incubation at 90° C. for 2 min. Samples were analyzed without further treatment by analytical RP HPLC with a linear gradient of methanol in 0.1 M KH2PO4, pH 6.0, from 0-50% over 15 min.

[3] = system: rabbit reticulocyte lysate system; experiment: In vitro translation efficiency of capped luciferase mRNA with 31-base poly(A) tail, method II transcripts; format: biochemical; conditions: for Translation efficiency in comparison to m^7GpppG-LUC-(A)31 mRNA, Experiment No. 4: experiment 4; for Translation efficiency in comparison to m^7GpppG-LUC-(A)31 mRNA, Experiment No. 5: experiment 5; for Translation efficiency in comparison to m^7GpppG-LUC-(A)31 mRNA, Mean: mean of experiments
Description: Capped, polyadenylated luciferase mRNAs were synthesized in vitro by PCR from a dsDNA template that contained the SP6 promoter, the 5′-UTR sequence of rabbit β-globin mRNA, the entire firefly luciferase coding region, and 31 adenosine residues. A typical transcription reaction mixture (40 μl) contained SP6 transcription buffer (Fermentas), 0.7 ug of DNA template, 1 U/μl RiboLock Ribonuclease Inhibitor (Fermentas), 0.5 mM each of ATP, CTP, and UTP, 0.1 mM GTP, and 0.5 mM dinucleotide cap analog. The reaction mixture was incubated at 37° C. for 5 min before addition of SP6 RNA polymerase (Fermentas) to a final concentration of 1 U/μl, and incubation then continued for 45 min at 37° C. The reaction mixture was treated with DNase as in Method I. RNA transcripts were purified with NucAway Spin Columns (Ambion). The integrity of transcripts and quantitation was performed as in Method I.
(§1) A micrococcal nuclease-treated rabbit reticulocyte lysate system (Flexi Rabbit Reticulocyte Lysate System, Promega) was used for in vitro translation. Translation reactions were performed in 10 μl for 60 min at 30° C. A typical reaction mixture contained 40% reticulocyte lysate, the 20 “standard” amino acids (0.01 mM each), MgCl2 (1.2 mM), potassium acetate (170 mM), and mRNA (five different concentrations of each transcript, ranging from 0.25 to 4 μg/ml). Luciferase activity was measured in a luminometer (Glomax, Promega). Linear regression was used to fit the data points (luciferase activity versus concentration of mRNA transcript), and translational efficiency was defined as the slope of this line. The relative translational efficiencies of the test mRNAs were compared to that of m^7GpppG-capped luciferase mRNA, the latter being defined as 1.0.

[4] = system: rabbit reticulocyte lysate system; experiment: In vitro translation efficiency of capped luciferase mRNA, method I transcripts; format: biochemical; conditions: for Translation efficiency in comparison with m^7GpppG-LUC mRNA, Experiment No. 1: experiment 1; for Translation efficiency in comparison with m^7GpppG-LUC mRNA, Experiment No. 2: experiment 2; for Translation efficiency in comparison with m^7GpppG-LUC mRNA, Experiment No. 3: experiment 3; for Translation efficiency in comparison with m^7GpppG-LUC mRNA, Mean: mean of experiments
Description: A DNA template for in vitro transcription was synthesized by PCR from the plasmid SP6p-5′UTR β-globin-LUCiferase. The template contained the SP6 promoter followed by the 5′-UTR sequence of rabbit β-globin mRNA and the entire firefly luciferase mRNA coding region. A typical in vitro transcription reaction mixture (50 μl) contained SP6 transcription buffer (Fermentas, cat. no. EP0131), 2 μg of DNA template, 2 U/μl RiboLock Ribonuclease Inhibitor (Fermentas), 2 mM each of ATP, CTP, and UTP, 0.1 mM GTP, and 1 mM dinucleotide cap analog. The reaction mixture was incubated at 37° C. for 5 min before the addition of SP6 RNA polymerase (Fermentas) to a final concentration of 2 U/μl. After 30 min of incubation at 37° C., GTP was added to a final concentration of 1 mM, and the reaction continued for an additional 90 min. The reaction mixtures were then treated with 1 U of DNase RQ1 (RNAse-free, Promega) per μg of template DNA in transcription buffer at 37° C. for 20 min. RNA transcripts were purified on DEPC-treated Sephadex G-50 spin columns (Pharmacia). The integrity of transcripts was confirmed by electrophoresis on a non-denaturating, 1% agarose gel. Concentrations were determined spectrophotometrically. The transcripts were stored at −80° C. until used.
as §1

[5] = 40 μM cap analog, 30° C., up to 120 min

Chain of eIF4E (P63073 28-217 limits assumed): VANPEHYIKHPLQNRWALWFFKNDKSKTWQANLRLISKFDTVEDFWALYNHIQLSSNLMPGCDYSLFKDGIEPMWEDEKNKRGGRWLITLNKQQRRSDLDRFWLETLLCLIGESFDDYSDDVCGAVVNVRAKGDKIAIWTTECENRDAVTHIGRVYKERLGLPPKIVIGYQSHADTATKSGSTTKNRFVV

Cap analog/eIF4E affinity (KAS) [1] [μM^−1]	Susceptibility to DcpS [2, 5]	Translation efficiency in comparison to m^7GpppG-LUC-(A)31 mRNA, Experiment No. 4 [3]	Translation efficiency in comparison to m^7GpppG-LUC-(A)31 mRNA, Experiment No. 5 [3]	Translation efficiency in comparison to m^7GpppG-LUC-(A)31 mRNA, Mean [3]	Susceptibility to DcpS ([2]; Table 3)	SMILES	other results
15.3 ± 0.2	hydrolyzed	2.38	3.28	2.83		[BH3-]P(=O)(OC[C@H]1O[C@@H](n2cnc3c(=O)[nH]c(N)nc32)[C@H](O)[C@@H]1O)OP(=O)(O)OP(=O)(O)OC[C@H]1O[C@@H](n2c[n+](C)c3c(=O)[nH]c(N)nc32)[C@H](OC)[C@@H]1O (single isomer, unassigned) [m2^7,2′-OGpppBH3G (D1), m2^7,2′-OGpppBH3G]	
10.8 ± 0.3	hydrolyzed				hydrolyzed	CO[C@@H]1[C@H](O)[C@@H](COP(=O)(O)OP(=O)([O-])OP(=O)(O)OC[C@H]2O[C@@H](n3cnc4c(=O)[nH]c(N)nc43)[C@H](O)[C@@H]2O)O[C@H]1n1c[n+](C)c2c(O)nc(N)nc21 [m2^7,2′-OGpppG, reference compound]	Cap analog-eIF4E affinity (KAS) ([1]; Table 3): 10.8 ± 0.3 μM^−1
		0.19	0.18	0.19		Nc1nc2c(ncn2[C@@H]2O[C@H](COP(=O)(O)OP(=O)(O)OP(=O)(O)OC[C@H]3O[C@@H](n4cnc5c(N)ncnc54)[C@H](O)[C@@H]3O)[C@@H](O)[C@H]2O)c(=O)[nH]1 [ApppG, reference compound]	Translation efficiency in comparison with m^7GpppG-LUC mRNA, Experiment No. 1 [4]: 0.34; Translation efficiency in comparison with m^7GpppG-LUC mRNA, Experiment No. 2 [4]: 0.55; Translation efficiency in comparison with m^7GpppG-LUC mRNA, Experiment No. 3 [4]: 0.53; Translation efficiency in comparison with m^7GpppG-LUC mRNA, Experiment No. 4 ([4]; experiment 4): 0.48; Translation efficiency in comparison with m^7GpppG-LUC mRNA, Mean [4]: 0.48; Translation efficiency in comparison to m^7GpppG-LUC-(A)31 mRNA, Experiment No. 1 ([3]; experiment 1): 0.27; Translation efficiency in comparison to m^7GpppG-LUC-(A)31 mRNA, Experiment No. 2 ([3]; experiment 2): 0.16; Translation efficiency in comparison to m^7GpppG-LUC-(A)31 mRNA, Experiment No. 3 ([3]; experiment 3): 0.14
					resistant	C[n+]1cn(C2OC(COP(O)(=[Se])OP(=O)([O-])OP(=O)(O)OCC3OC(n4cnc5c(=O)[nH]c(N)nc54)C(O)C3O)C(O)C2O)c2nc(N)[nH]c(=O)c21 (single isomer, unassigned) [m^7GpSeppG (D2), m^7GpSeppG]	
39.4 ± 1.2	resistant	1.87	3.44	2.66		[BH3-]P(=O)(OP(=O)(O)OCC1OC(n2cnc3c(=O)[nH]c(N)nc32)C(O)C1O)OP(=O)(O)OCC1OC(n2c[n+](C)c3c(=O)[nH]c(N)nc32)C(OC)C1O (single isomer, unassigned) [m2^7,2′-OGppBH3pG (D1), m2^7,2′-OGppBH3pG]	
5.0 ± 0.2	hydrolyzed					C[n+]1cn([C@@H]2O[C@H](COP(=O)(O)OP(=O)(O)OP(=O)(O)OC[C@H]3O[C@@H](n4c[n+](C)c5c(=O)[nH]c(N)nc54)[C@H](O)[C@@H]3O)[C@@H](O)[C@H]2O)c2nc(N)[nH]c(=O)c21 [m^7Gpppm^7G, reference compound]	
						[BH3-]P(=O)(OP(=O)(O)OCC1OC(n2cnc3c(=O)[nH]c(N)nc32)C(O)C1O)OP(=O)(O)OCC1OC(n2c[n+](C)c3c(=O)[nH]c(N)nc32)C(O)C1O (mixture of isomers) [m^7GppBH3pG]	Translation efficiency in comparison with m^7GpppG-LUC mRNA, Experiment No. 1 [4]: 1.66; Translation efficiency in comparison with m^7GpppG-LUC mRNA, Experiment No. 2 [4]: 1.42; Translation efficiency in comparison with m^7GpppG-LUC mRNA, Experiment No. 3 [4]: 1.14; Translation efficiency in comparison with m^7GpppG-LUC mRNA, Mean [4]: 1.41; In vitro translational efficiency, method I ([4]; relative to m^7GpppG-capped luciferase mRNA = 1.0): 1.41 ± 0.26
					resistant	C[n+]1cn(C2OC(COP(O)(=[Se])OP(=O)([O-])OP(=O)(O)OCC3OC(n4cnc5c(=O)[nH]c(N)nc54)C(O)C3O)C(O)C2O)c2nc(N)[nH]c(=O)c21 (single isomer, unassigned) [m^7GpSeppG (D1), m^7GpSeppG]	

SMILES	Cap analog/eIF4E affinity (KAS) [1] [μM^−1]	Susceptibility to DcpS [2, 5]	Translation efficiency in comparison to m^7GpppG-LUC-(A)31 mRNA, Experiment No. 4 [3]	Translation efficiency in comparison to m^7GpppG-LUC-(A)31 mRNA, Experiment No. 5 [3]	Translation efficiency in comparison to m^7GpppG-LUC-(A)31 mRNA, Mean [3]	Susceptibility to DcpS ([2]; Table 3)	other results
CO[C@@H]1[C@H](O)[C@@H](COP(=O)([O-])OP(O)(=S)OP(=O)(O)OC[C@H]2O[C@@H](n3cnc4c(=O)[nH]c(N)nc43)[C@H](O)[C@@H]2O)O[C@H]1[n+]1cn(C)c2c(=O)[nH]c(N)nc21 (single isomer, unassigned) [m2^7,2′-OGppSpG (D1), m2^7,2′-OGppSpG, reference compound]			2.92	2.83	2.88		
CO[C@@H]1[C@H](O)[C@@H](COP(=O)([O-])OP(O)(=S)OP(=O)(O)OC[C@H]2O[C@@H](n3cnc4c(=O)[nH]c(N)nc43)[C@H](O)[C@@H]2O)O[C@H]1[n+]1cn(C)c2c(=O)[nH]c(N)nc21 (single isomer, unassigned) [m2^7,2′-OGppSpG (D2), m2^7,2′-OGppSpG, reference compound]			3.20	3.02	3.11		
